Here are results for 4 compounds from patent publication US20220362177A1, “CERAMIDE RATIOS AS PREDICTIVE AND THERAPEUTIC BIOMARKERS FOR LEUKEMIAS” (University of Virginia Patent Foundation, priority 2019, published 2022).

One assay has as its system MOLM-14. The assay can be described thus: MTS cell viability assay. It counts as cell-based. Conditions: MOLM-14, ceramides for 24 hours, with CNL. On the procedure: FIG. 4. Ceramide chain length altered biological and biophysical responses. MOLM-14 cells were treated with the indicated ceramides for 24 hours and viability was assessed by MTS.
MTS Cell Viability Assay: Cytotoxicity of nanoliposomal ceramide in AML cells was measured by plating 15,000 cells/well into 96-well plates followed by growth for 24 hours in a humidified 37° C. cell culture incubator in the presence of ghost liposomes, CNL or other drugs for 24 hours in 10% serum medium. After 24 h, MTS/PMS mixture was added and adsorption was read at 560 nm using Bio-Tek plate reader.
Cell viability MTS assays were performed in three AML cells lines: OCI-AML2, KG-1, AND MOLM-14 to determine their sensitivities to co-treatment with CNL, Ara-C, and Venetoclax. Table 1 summarized these cell lines, their sources, and the known driver mutations that are present in the cell lines. The cells lines were treated with concentrations that had been determined to be less than the EC50 so any synergistic or additive effects could be observed.

The subject of the next assay is AML cells. Conditions: recent studies by others; cited from earlier work.
For the next assay, the system named is ceramide levels. Put plainly: Lipidomics (LC/MS) of ceramide levels in treated cells. It counts as cell-based. Conditions: 24 hrs. The text has this: Lipidomics: Lipids were extracted from cell lysates and analyzed on an Acquity I-Class/Xevo TQ-S Micro IVD System (Waters Corporation, Milford, Mass., United States of America) as described previously (Pearson et al. (2020) Ceramide Analogue SACLAC Modulates Sphingolipid Levels and MCL-1 Splicing to Induce Apoptosis in Acute Myeloid Leukemia. Mol Cancer Res 18(3):352-363). Mass spectrometry peaks were compared to internal standards, and all data are represented as picomoles of lipid per milligram of protein.
To determine potential metabolic mechanism underlying the efficacy of combinatorial CNL/AraC/Venetoclax (CAV) treatment, lipids were harvested to measure the effect of Venetoclax and AraC upon CNL metabolism by LC/MS. Cells were treated individually or in combination with CNL, Ara-C, and/or Venetoclax for 24 hrs. […] This lead to an increase in the C16/C24 ratio, which might support a pro-mitogenic response (FIG. 6H).

Another assay relates to Mcl-1. The assay can be described thus: Western blot of treated MOLM-14 cells. In kind it is cell-based. Conditions: MOLM-14, 24 hours. (A western blot detects proteins with antibodies after separation by electrophoresis.)
Another assay concerns Survivin. The assay can be described thus: Western blot of treated MOLM-14 cells. In kind it is cell-based. Conditions: MOLM-14, 24 hours, independently. On the procedure:
(§1) FIGS. 7A-7I. CAV treatment alters expression of genes involved in cell survival relevant to AraC and Venetoclax resistance mechanism. MOLM-14 cells were treated with the listed conditions for 24 hours and protein harvested. Western blots were performed and quantitated via densitometry. Representative blots are shown in FIG. 7A and quantification in FIGS. 7B-7I. *: significant to Vehicle.
(§2) Western blotting: Whole cell lysates were prepared by dissolving cells in FOCUS™ Extraction Buffer III (G-Biosciences, St. Louis, Mo., United States of America; Catalog No. 786-222) containing protease inhibitors (Thermo Fisher Scientific Catalog No. A32955) for 10-15 minutes on ice with occasional shaking. After centrifugation for 15 minutes at 13-14000×g at 10° C. supernatants were mixed with one-third of a volume of NUPAGE™ LDS 4× Sample Buffer (Thermo Fisher Scientific) containing 5% 2-mercaptoethanol. Protein samples were prepared by heating at 37° C. for 10 min after the addition of denaturing sample buffer. Proteins were separated using SDS-PAGE on a 4-12% gel (Thermo Fisher Scientific) and transferred to Immobilon membrane (Bio-Rad). […]

The subject of a further assay is XIAP. Put plainly: Western blot of treated MOLM-14 cells. It counts as cell-based. Conditions: MOLM-14, 24 hours. The procedure:
as §1, §2

The subject of the next assay is C1498 AML cells. Put plainly: Syngeneic C1498-luc AML model in C57BL/6J mice. In kind it is in vivo, mouse. The procedure:
FIG. 8C: Survival of C1498-bearing C57BL/6J mice were treated with either Control (Lip-Ghost), CNL (31.2 mg/kg), Cytarabine (75 mg/kg) or CNL+Cytarabine.
We initially utilized the immune-compromised NRG mice engrafted with MOLM-13 cells expressing luciferase. Mice were engrafted, treated with the various drug combinations, and disease burden measured by live animal luminescence and Kaplan-Meier curve. […] C1498 cells are a de novo AML cell line from a C57-blkJ mouse. […] Given this, no Venetoclax groups were included. C57-blkJ mice were injected with C1498 AML cells transduced to express luciferase.

Description for Mcl-1: After centrifugation for 15 minutes at 13-14000×g at 10° C. supernatants were mixed with one-third of a volume of NUPAGE™ LDS 4× Sample Buffer (Thermo Fisher Scientific) containing 5% 2-mercaptoethanol. Protein samples were prepared by heating at 37° C. for 10 min after the addition of denaturing sample buffer. […] Primary and secondary antibodies were to diluted in 0.05% TBS/Tween-20 containing 0.05% Casein Blocker. Protein bands were visualized using a commercially available chemiluminescence kit (Thermo Fisher Scientific) or by infrared laser scanner using ChemiXX6 G:box imager (Syngene, Frederick, Md., United States of America).

Regarding `CCCCCCCCCCCCC/C=C/[C@@H](O)[C@H](CO)NC(=O)CCCCCCCCCCCCCCC` [C16 ceramide], in the assay on MOLM-14, the “potentiation of CNL-induced cell death” value is “potentiated”.

Turning to `CCCCCCCCc1ccc(CCC(N)(CO)CO)cc1` [FTY720], in the assay on AML cells, the “apoptosis / death of AML cells” value is reported as “rapidly induced ceramide-mediated apoptosis”.

In the case of `CCCCCCCCCCCCC/C=C/[C@@H](O)[C@H](CO)NC(=O)CCCCCCCCCCCCCCCCCCCCCCC` [C24 ceramide], in the assay with MOLM-14, the “potentiation of CNL-induced cell death” value is on record as “not”.

With `Nc1ccn([C@@H]2O[C@H](CO)[C@@H](O)[C@@H]2O)c(=O)n1` [AraC, cytarabine], the values for the ceramide levels entry in the assay on ceramide levels (single agent) and in the assay with ceramide levels (with co-treatment of CNL) were “significantly elevated” and “raise ceramide levels”, respectively. For the same compound, in the assay with Mcl-1, the Mcl-1 expression result is on record as “not”. Further, the Survivin expression levels entry with Survivin is recorded as “increased expression levels”. For the same compound, in the assay with XIAP, the XIAP expression result is recorded as “not”. In addition, the median survival time with C1498 AML cells (C1498-bearing C57BL/6J mice, CNL 31.2 mg/kg, Cytarabine 75 mg/kg, treated 7 days) came to 41 days. Further, the “survival” value with C1498 AML cells (C1498 model, single agent) is listed as “moderate increase in survival”.
